In patent publication US9580411B2, “Substituted sulfonamide compounds” (Hoffmann-La Roche Inc., priority 2012, dated 2017):

Target: hTRPA1 (Homo sapiens (Human), UniProt O75762)
Experiment: IC50 determination on human TRPA1 channel, Hamamatsu FDSS calcium fluorescence, CHO cells
Type: cell-based
Conditions: CHO cells expressing human TRPA1; block of cinnamaldehyde induced calcium influx; Hill coefficient fixed to 1.5; read-out: hTRPA1 AUC IC50
Protocol: IC50s (effective concentration) of compounds on the human TRPA1 channel were determined using a Hamamatsu FDSS fluorescence plate reader. CHO cells expressing human TRPA1 were plated into 384-well plates, incubated overnight at 37° C., and loaded with BD calcium indicator dye for 1 hr at 37° C. followed by 15 minutes at room temperature. The assay buffer was Hank's Balanced Salt Solution (HBSS) containing 20 mM HEPES (pH readjusted to 7.4) along with 0.02% BSA.
Following dye load and plate cool down, compounds were added to the cells using the FDSS while monitoring fluorescence to determine whether any of the test compounds have TRPA1 agonist activity. Plates were then incubated with compound for 20 minutes at room temperature prior to adding agonist. Following this incubation, […] cinnamaldehyde was added to all wells of the plate and block of this cinnamaldehyde induced calcium influx was measured.
Fixing the Hill coefficient will generally reduce variability of the IC50 determination. The IC50s were examined by eye to make sure the MIN and MAX points were set correctly prior to validation of the results.

Chain of hTRPA1 (O75762 whole entry): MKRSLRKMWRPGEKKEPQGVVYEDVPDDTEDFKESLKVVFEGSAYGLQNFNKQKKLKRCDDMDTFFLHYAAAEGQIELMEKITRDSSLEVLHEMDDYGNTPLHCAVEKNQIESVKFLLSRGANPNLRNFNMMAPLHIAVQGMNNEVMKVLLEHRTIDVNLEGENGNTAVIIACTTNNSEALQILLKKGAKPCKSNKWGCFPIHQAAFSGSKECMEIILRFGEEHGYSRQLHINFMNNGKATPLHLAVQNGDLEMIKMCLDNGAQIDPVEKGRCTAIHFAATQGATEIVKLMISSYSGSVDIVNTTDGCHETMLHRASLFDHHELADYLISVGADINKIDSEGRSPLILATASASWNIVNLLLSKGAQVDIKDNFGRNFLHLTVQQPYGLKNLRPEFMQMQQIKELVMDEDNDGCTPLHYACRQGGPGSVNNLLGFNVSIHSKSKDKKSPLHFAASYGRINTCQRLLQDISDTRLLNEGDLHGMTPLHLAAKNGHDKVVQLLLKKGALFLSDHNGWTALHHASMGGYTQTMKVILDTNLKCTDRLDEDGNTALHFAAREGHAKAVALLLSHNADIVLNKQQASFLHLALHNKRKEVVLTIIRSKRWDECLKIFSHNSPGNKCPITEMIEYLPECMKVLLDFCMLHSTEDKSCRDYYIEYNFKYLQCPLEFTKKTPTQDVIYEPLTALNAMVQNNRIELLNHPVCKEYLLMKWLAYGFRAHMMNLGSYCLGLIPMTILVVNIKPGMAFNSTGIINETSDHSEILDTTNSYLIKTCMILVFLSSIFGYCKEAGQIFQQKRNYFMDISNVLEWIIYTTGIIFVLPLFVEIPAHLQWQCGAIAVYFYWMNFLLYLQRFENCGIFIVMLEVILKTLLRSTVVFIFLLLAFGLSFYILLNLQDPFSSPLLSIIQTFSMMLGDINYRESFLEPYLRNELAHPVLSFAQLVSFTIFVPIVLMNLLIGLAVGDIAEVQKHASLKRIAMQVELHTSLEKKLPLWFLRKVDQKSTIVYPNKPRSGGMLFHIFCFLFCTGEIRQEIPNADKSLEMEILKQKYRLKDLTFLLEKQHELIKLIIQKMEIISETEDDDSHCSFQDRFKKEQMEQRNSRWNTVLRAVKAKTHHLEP

Structure (SMILES)	IC50 [nM]
CC(C)N(CC(=O)NCc1cccc(-c2cnc(N3CCC[C@H]3C)nc2)c1)S(=O)(=O)c1ccc(F)cc1 (single isomer, unassigned) [79-(R)]	55
CC(C)N(CC(=O)NCc1cccc(-c2cnc(N3CCC[C@@H]3C)nc2)c1)S(=O)(=O)c1ccc(F)cc1 (single isomer, unassigned) [79-(S)]	38
CC(C)N(CC(=O)NCc1cccc(N2CCCC2)c1)S(=O)(=O)c1ccc(F)cc1 [Example 77, 2-(4-fluoro-N-isopropylphenylsulfonamido)-N-(3-(pyrrolidin-1-yl)benzyl)acetamide]	883
CC(C)N(CC(=O)NCc1cccc(C2CC2)c1)S(=O)(=O)c1ccc(F)cc1 [Example 78, N-(3-cyclopropylbenzyl)-2-(4-fluoro-N-isopropylphenylsulfonamido)acetamide]	1000
CC(C)N(CC(=O)NCc1cc(N2CCC(C(F)(F)F)CC2)ncn1)S(=O)(=O)c1ccc(F)cc1 [Example 80, 2-(4-Fluoro-N-isopropylphenylsulfonamido)-N-((6-(4-(trifluoromethyl)piperidin-1-yl)pyrimidin-4-yl)methyl)acetamide]	251
CC(C)N(CC(=O)NCc1cc(N2CCC(F)(F)CC2)ncn1)S(=O)(=O)c1ccc(F)cc1 [Example 81, N-((6-(4,4-Difluoropiperidin-1-yl)pyrimidin-4-yl)methyl)-2-(4-fluoro-N-isopropylphenylsulfonamido)acetamide]	3000
CC(C)N(CC(=O)NCc1cccc(-c2ccc(C(F)(F)F)cc2)c1)S(=O)(=O)c1ccn(C)n1 [Example 82, 2-(N-Isopropyl-1-methyl-1H-pyrazole-3-sulfonamido)-N-((4′-(trifluoromethyl)biphenyl-3-yl)methyl)acetamide]	2400
[2H]C([2H])(C(=O)NCc1cc(-c2ccc(C(F)(F)F)nc2)ncn1)N(C(C)C)S(=O)(=O)c1ccc(F)cc1 [Example 83, 2,2-Dideuterio-2-(4-fluoro-N-isopropylphenylsulfonamido)-N-((6-(6-(trifluoromethyl)pyridin-3-yl)pyrimidin-4-yl)methyl)acetamide]	58
CC(C)N(C1(C(=O)NCc2cc(-c3ccc(C(F)(F)F)nc3)ncn2)CC1)S(=O)(=O)c1ccc(F)cc1 [Example 84, 1-(4-Fluoro-N-isopropylphenylsulfonamido)-N-((6-(6-(trifluoromethyl)pyridin-3-yl)pyrimidin-4-yl)methyl)cyclopropanecarboxamide]	29
O=C(CN(c1ccc(F)cc1)S(=O)(=O)c1ccc(F)cc1)NCc1cc(-c2ccc(C(F)(F)F)nc2)ncn1 [Example 86, 2-(4-fluoro-N-(4-fluorophenyl)phenylsulfonamido)-N-((6-(6-(trifluoromethyl)pyridin-3-yl)pyrimidin-4-yl)methyl)acetamide]	9
